# In patent publication US9073851B2, “Compositions and methods for treating cancer” (Board of Regents, The University of Texas System, priority 2011, dated 2015):
# Legend:
# MCF10A = assay: MTS cell viability assay on normal breast epithelium; assay type: cell-based, human; settings: at IC50 to IC90 doses in breast cancer cells (MCF7)
# Text: (§1) (aka proliferation assay, in this case MTS assay was used. MTS, MTT, XTT all similar assays often used as cell viability/toxicity assay). Cell viability in response to compounds such as 5NT and KD06 was studied with a tetrazolium/formazan based assay (MTS, Celltiter 96 aqueous one solution cell proliferation assay, Promega, WI) [Akar U, Chaves-Reyez A, Barria g Tari A, Sanguino A, Kondo Y, Kondo S, Arun B, Lopez-Berestein G, Ozpolat B: Silencing of Bcl-2 expression by small interfering RNA induces autophagic cell death in MCF-7 breast cancer cells. Autophagy 2008, 4:669-679, Ozpolat 2007 MCR]. Cells were seeded in 96 wells plates at a density of 1.5 to 3.0×10^3 cells per well in 100 μl of medium. Next day the medium was removed and cells were treated with the drug in 100 μl of medium for 72 hours. Plates were read at 490 nm wavelength in an Elisa plate reader (Kinetic Microplate Reader, Molecular Devices Corporation, Sunnyvale, Calif.).
# breast cancer cells = assay: Cell viability assay, breast cancer cell panel or cell line not stated; assay type: cell-based, human
# Text: as §1
# 5-HT1B/1D receptor = assay: cAMP levels; assay type: cell-based
# [1] = system: 5-HT1B or 5-HT1D receptor; assay: Effect on cell proliferation after siRNA knockdown of 5-HT1B or 5-HT1D receptor; assay type: cell-based
# MCF7 cells = assay: MTS cell viability/proliferation assay; assay type: cell-based, human
# Text: (§2) Viable and dead cells were detected by the trypan blue exclusion assay, where viable cells (non-stained) with intact membrane are able to exclude the dye, while dead cells take up the coloring blue agent from the media. To quantitatively assess the viability and/or proliferation of cells a MTS assay was used, which incorporates a redox indicator that changes color in response to metabolic activity. To study cell viability in response to CaMK-III siRNA or control siRNA and plasmid encoding CaMK-III or empty plasmid transfection cells were seeded in 96-well plates at a density of 3×10^3 cells per well in 100 μl of medium. Next day the medium was removed and cells were transfected with siRNA at different concentrations in 100 μl of medium plus transfection mix. Two days after transfection, the medium was removed and replaced by 180 μl of medium plus 20 μl of MTS and the cells were incubated under normal conditions until the color changed. Plates were read at dual wavelengths (570-595 nm) in an Elisa plate reader (Kinetic Microplate Reader, Molecular Devices Corporation, Sunnyvale, Calif.).
# as §1
# MCF7 breast cancer cells = assay: Acridine orange staining of acidic vesicular organelles (autophagy), FACS; assay type: cell-based, human; settings: for percentage of acridine orange positive cells: flow cytometry, control untreated cells 2%
# Text: To determine the role of serotonin 5-HT1B receptor in cell survival and the mechanism of growth inhibition induced by HT1B inhibitors we investigated cell death in breast cancer cells. When 5-HT1B was inhibited by either SB224289 or SB216641 we detected marked induction of autophagy (FIG. 28A) as detected by acridine orange staining, apoptosis by Annexin V and necrosis by propidium iodide (PI) staining and FACS analysis (FIG. 28B) in MCF7 breast cancer cells. Induction of acidic vacuoles by acridine orange staining was also observed in MDA-MB231 cells after SB224289 treatment for 72 hours (p<0.05) (FIG. 28C).
# (§3) To detect and quantify acidic vesicular organelles, we stained cells with acridine orange as described previously.^31 The number of acridine orange-positive cells was determined by fluorescence-activated cell sorting (FACS) analysis. Cell morphology was examined using fluorescence microscopy (Nikon, Melville, N.Y.) with the cells remaining in their culture flasks.
# ERK (p42/p44) and LC3-II = assay: Western blot of p-ERK and LC3-II after 5-HT1B antagonists; assay type: cell-based, human; settings: for phosphorylation of ERK (p42/p44): Western blot
# Procedure: After treatment the cells were trypsinized and collected by centrifugation, and whole-cell lysates were obtained using a lysis buffer as described previously [Akar U, et al. Mol Cancer Res 2007: 5:241-249]. Total protein concentration was determined using a DC protein assay kit (Bio-Rad, Hercules, Calif.). Aliquots containing […] of total protein from each sample were subjected to sodium dodecyl sulfate-polyacrylamide gel electrophoresis (SDS-PAGE) with a 4-20% gradient and electrotransferred to nitrocellulose membranes. The membranes were blocked with 5% dry milk in Tris-buffered saline-Tween 20 (TBST), probed with primary antibodies anti EREK1/2 or p-ERK1/2 (Cell signaling), polyclonal LC3 antibody (Novus biologicals, Littleton, Colo.). The antibodies were diluted in TBST containing 2.5% dry milk and incubated at 4 C overnight. After the membranes were washed with TBST, they were incubated with horseradish peroxidase-conjugated anti-rabbit or anti-mouse secondary antibody (Amersham Life Science, Cleveland, Ohio). Mouse anti-actin and donkey anti-mouse secondary antibodies (Sigma Chemical, St. Louis, Mo.) were used to monitor-actin expression to ensure equal loading of proteins. Chemiluminescent detection was performed with Chemi-glow detection reagents (Alpha Innotech, San Leandro, Calif.). The blots were visualized with a FluorChem 8900 imager and quantified by a densitometer using the Alpha Imager application program (Alpha Innotech, San Leandro, Calif.).
# MDA-MB-231 cells [2] = assay: MTS cell viability/proliferation assay; assay type: cell-based, human; settings: MTS assay, MB-231
# Text: Viable and dead cells were detected by the trypan blue exclusion assay, the viability and/or proliferation of cells a MTS assay was used [Akar U, et al. Autophagy 2008: 4:669-79].
# as §2, with “Two days after transfection, the medium was removed and replaced by 180 μl of medium plus 20 μl of MTS and the cells were incubated under normal conditions until the color changed.” left out
# (aka proliferation assay, in this case MTS assay was used. MTS, MTT, XTT all similar assays often used as cell viability/toxicity assay). […] Plates were read at 490 nm wavelength in an Elisa plate reader (Kinetic Microplate Reader, Molecular Devices Corporation, Sunnyvale, Calif.).
# MCF7/Dox resistant cells = assay: MTS cell viability/proliferation assay; assay type: cell-based, human; settings: MTS assay
# Text: as §2, §1
# MCF-7 cells [3] = assay: Clonogenic survival assay; assay type: cell-based, human; settings: various concentrations over two weeks, vs untreated
# Procedure: (§4) To study the effect of CaMK-III growth of ER(−) and ER(+) breast cancer cells we performed a clonogenic assay, which is based on the ability of a single cell to grow into a colony (Franken N A, et al. Nat Protoc 2006: 1:2315-9), using MDA-MB-231 and MCF-7 cells, respectively. Cells were transfected with either CaMK-III or control siRNA (50 nM) […] over a period of two weeks.
# (§5) This assay is an in vitro cell survival assay based on the ability of a single cell to grow into a colony. Briefly, cells (500 cells/well) were transfected with control siRNA or CaMK-III siRNA every week and grown for 2 to 3 weeks. Cells were stained with crystal violet and colonies were counted. Each experiment was repeated twice.
# To study the effect of 5-HT1B on the survival and colony formation of breast cancer cells a clonogenic survival assay was performed using various concentrations of […] over a period of two weeks. This assay is based on the ability of a single cell to grow into a colony [Franken N A, et al. Nat Protoc 2006: 1:2315-2319]. […] Cell death and detachment as well as reduced cell number was observed.
# This assay is an in vitro cell survival assay based on the ability of a single cell to grow into a colony. […] Cells were stained with crystal violet and colonies cells were counted. […]
# MCF7 and MDA-MB231 cells = assay: Acridine orange autophagy assay with MEK inhibitor PD98059; assay type: cell-based, human
# Procedure: as §3
# MCF-7 cells [4] = assay: Apoptosis / cell death in MCF-7 cells (Annexin V, FACS); assay type: cell-based, human; settings: Annexin V, MCF cells
# Procedure: (§6) Apoptosis was assessed by an Annexin V assay, monitoring PARP and caspase 9 cleavage by Western blot. To provide a comparative assay of apoptosis by Annexin V labeling, tumor cells (1×10^6) treated with CaMK-III siRNA or control siRNA for 24 to 96 hours were harvested and washed with PBS. Cells were resuspended in binding buffer and stained with Annexin V and propidium iodide (PI) according to the manufacturer's protocol (BD Pharmingen Annexin V kit, San Diego, Calif.). Positive cells were detected and quantified by FACS analysis.
# [5] = system: STAT3, Bcl-2 and PI3K/Akt pathways; assay: Signaling pathways after SB-224289 in breast cancer cells; assay type: cell-based; settings: preliminary studies
# [6] = mouse, in vivo
# [7] = system: ER+ MCF-7 breast cancer cells; assay: Cell proliferation on serotonin treatment (cell counting); assay type: cell-based, human
# MDA-MB-231 cells [8] = assay: Annexin V staining and FACS analysis of apoptosis; assay type: cell-based, human
# Procedure: To investigate whether inhibition of CaMK-III sensitizes drug (doxorubicin)-resistant MCF7/DoxR and MDA-MB-231 cells to chemotherapy, cells were treated with either CaMK-III (50 nM) or control siRNA (50 nM) for 24 hours and then with doxorubicin (ED50 dose) for 48 hours. The ED50 of doxorubicin was determined from a dose-escalation study in a proliferation assay. […] To determine the percent of cells undergoing apoptosis in response to doxorubicin alone and in combination with CaMK-III siRNA was detected by Annexin V staining and FACS analysis.
# as §6
# MDA-MB-231 cells [9] = assay: Clonogenic survival assay; assay type: cell-based, human; settings: paclitaxel 2 nM + CaMK-III siRNA
# Procedure: as §4, §5
# This assay is an in vitro cell survival assay based on the ability of a single cell to grow into a colony. Briefly, cells (500 cells/well) were transfected with different siRNA as described above and at 48 h post-transfection, cells were trypsinized and seeded into 6-well plates in the medium (500 cells/mL). Cells were transfected with control siRNA or CaMK-III siRNA every week and grown for 2 to 3 weeks. Cells were stained with crystal violet and colonies cells were counted. Each group was assayed in triplicate dishes, and each experiment was repeated twice.
smiles,measurement,setting,value
CCCCCCCCCCCCOc1ccc2[nH]cc(CCN)c2c1.Cl [KD06],toxicity against normal breast epithelium,MCF10A,not toxic
same,potency relative to 5-NT,breast cancer cells,more potent than 5-NT
same,cell survival (O.D.) in a large panel of breast cancer cells,"breast cancer cells; incl. MDA-468, BT20, MDa-MB231, SKBR3, MDA-MB435, T47D, ZR75.1",effective against almost all breast cancer cell lines
same,cAMP levels,5-HT1B/1D receptor,decrease cAMP levels
same,effect of compound after knockdown of 5-HT1B or 5-HT1D receptor,[1],blunts the effect
COc1ccc(NC(=O)c2ccc(-c3ccc(-c4noc(C)n4)cc3C)cc2)cc1OCCN(C)C [SB216641],cell viability,MCF7 cells; antagonist alone,31%
same,cell viability,"MCF7 cells; with 3-MA, p<0.05",71%
same,percentage of acridine orange positive cells,MCF7 breast cancer cells,17%
same,phosphorylation of ERK (p42/p44),ERK (p42/p44) and LC3-II,induced phosphorylation of ERK (p42/p44)
Cc1nc(-c2ccc(-c3ccc(C(=O)N4CCc5cc6c(cc54)C4(CCN(C)CC4)CO6)cc3)c(C)c2)no1 [SB224289],inhibition of cell proliferation,MDA-MB-231 cells [2],dose-dependent inhibition
same,EC50,"MCF7 cells; Homo sapiens, MCF7, MCF cells",4.4 µM
same,inhibition of cell proliferation,MCF7 cells; MTS assay,dose-dependent inhibition
same,cell viability,MCF7 cells; antagonist alone,42%
same,cell viability,"MCF7 cells; with 3-MA, p<0.05",61%
same,inhibition of cell proliferation,MCF7/Dox resistant cells,dose-dependent inhibition
same,colony formation,MCF-7 cells [3],grew more slowly and produced fewer colonies
same,incidence of autophagy,MCF7 breast cancer cells; antagonist alone,22.4%
same,percentage of acridine orange positive cells,MCF7 breast cancer cells,23%
same,incidence of autophagy,MCF7 breast cancer cells; with 3-MA,12%
same,percent positive cells with autophagy,MCF7 and MDA-MB231 cells; antagonist alone,29.2%
same,percent positive cells with autophagy,MCF7 and MDA-MB231 cells; with ERK inhibitor (MEK inhibitor PD98059),18%
same,induction of apoptosis,MCF-7 cells [4],induced apoptosis in a dose dependent manner
same,"LC3-II, marker of autophagy",ERK (p42/p44) and LC3-II; MCF7 and MCF7/Dox-R cells,induction of LC3-II
same,phosphorylation of ERK (p42/p44),ERK (p42/p44) and LC3-II,induced phosphorylation of ERK (p42/p44)
same,"STAT3, Bcl-2 and PI3K/Akt pathways",[5],"inhibits the STAT3 and Bcl-2 pathways, as well as the PI3K/Akt pathway"
same,toxicity in mice,[6],quite toxic in mice
"NCCc1c[nH]c2ccc(O)cc12 [Serotonin, 5-hydroxytryptamine]",cell proliferation,[7],induced proliferation
COc1cccc2c1C(=O)c1c(O)c3c(c(O)c1C2=O)C[C@@](O)(C(=O)CO)C[C@@H]3O[C@H]1C[C@H](N)[C@H](O)[C@H](C)O1 [doxorubicin],apoptosis induced by doxorubicin (Annexin V positive cells),"MDA-MB-231 cells [8]; doxorubicin alone, 48 h",5%
same,apoptosis induced by doxorubicin (Annexin V positive cells),MDA-MB-231 cells [8]; doxorubicin with CaMK-III siRNA,55%
CC(=O)O[C@H]1C(=O)[C@@]2(C)[C@H]([C@H](OC(=O)c3ccccc3)[C@]3(O)C[C@H](OC(=O)[C@H](O)[C@@H](NC(=O)c4ccccc4)c4ccccc4)C(C)=C1C3(C)C)[C@]1(OC(C)=O)CO[C@@H]1C[C@@H]2O [paclitaxel],inhibition of colony formation by paclitaxel with CaMK-III siRNA,MDA-MB-231 cells [9],enhances efficacy
